Source: the supplement of paper PMC10307832

Key:
Test in all cases: relative viability (nuclei count vs DMSO), 5 days (fraction); higher = more cells survive
Daporinad + Olaparib = compound: O=C(/C=C/c1cccnc1)NCCCCC1CCN(C(=O)c2ccccc2)CC1 [Daporinad] + O=C(c1cc(Cc2n[nH]c(=O)c3ccccc23)ccc1F)N1CCN(C(=O)C2CC2)CC1 [Olaparib] (partner 8 µM)
Outline: (§1)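 For relative viability, nuclei counts in treated wells were divided by those in vehicle wells. Lung cancer cell lines had been pin-tool dosed in 1536-well plates the day after seeding and cultured for 5 days, then fixed and stained in one step (final 0.05% Triton X-100, 1% formaldehyde, 1 ug/ml Hoechst) and imaged at 4×. Doses were one drug alone or a fixed anchor-drug dose plus five library-drug doses (not always all listed) in √10 steps, and values are duplicate-plate medians.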

R406 + Dasatinib = compound: COc1cc(Nc2ncc(F)c(Nc3ccc4c(n3)NC(=O)C(C)(C)O4)n2)cc(OC)c1OC [R406] + Cc1nc(Nc2ncc(C(=O)Nc3c(C)cccc3Cl)s2)cc(N2CCN(CCO)CC2)n1 [Dasatinib] (partner 0.075 µM)
Outline: as §1

Daporinad + Crizotinib = compound: O=C(/C=C/c1cccnc1)NCCCCC1CCN(C(=O)c2ccccc2)CC1 [Daporinad] + C[C@@H](Oc1cc(-c2cnn(C3CCNCC3)c2)cnc1N)c1c(Cl)ccc(F)c1Cl [Crizotinib] (partner 1 µM)
Outline: as §1

R406 + Lapatinib = compound: COc1cc(Nc2ncc(F)c(Nc3ccc4c(n3)NC(=O)C(C)(C)O4)n2)cc(OC)c1OC [R406] + CS(=O)(=O)CCNCc1ccc(-c2ccc3ncnc(Nc4ccc(OCc5cccc(F)c5)c(Cl)c4)c3c2)o1 [Lapatinib] (partner 2 µM)
Outline: as §1

Row | Cell Line | relative viability (Daporinad + Olaparib; first compound 0.0005 µM) | relative viability (Daporinad + Olaparib; first compound 0.001581 µM) | relative viability (Daporinad + Olaparib; first compound 0.005 µM) | relative viability (Daporinad + Olaparib; first compound 0.01581 µM) | relative viability (R406 + Dasatinib; first compound 0.08 µM) | relative viability (R406 + Dasatinib; first compound 0.253 µM) | relative viability (R406 + Dasatinib; first compound 0.8 µM) | relative viability (R406 + Dasatinib; first compound 2.53 µM) | relative viability (R406 + Dasatinib; first compound 8 µM) | relative viability (Daporinad + Crizotinib; first compound 0.0005 µM) | relative viability (Daporinad + Crizotinib; first compound 0.001581 µM) | relative viability (Daporinad + Crizotinib; first compound 0.005 µM) | relative viability (Daporinad + Crizotinib; first compound 0.01581 µM) | relative viability (R406 + Lapatinib; first compound 0.08 µM) | relative viability (R406 + Lapatinib; first compound 0.253 µM) | relative viability (R406 + Lapatinib; first compound 0.8 µM) | relative viability (R406 + Lapatinib; first compound 8 µM) | relative viability (R406 + Lapatinib; first compound 2.53 µM)
1 | HCC-15 | 0.67 | 0.642 | 0.467 | 0.35 | 0.629 | 0.735 | 0.662 | 0.602 | 0.331 | 0.785 | 0.853 | 0.907 | 0.831 | 0.822 | 1.02 | 0.94 | 0.687 | –
2 | LCLC-97TM1 | 0.435 | 0.322 | 0.201 | 0.122 | 0.83 | 0.863 | 0.793 | 0.722 | 0.602 | 0.443 | 0.402 | 0.605 | 0.323 | 0.647 | 0.855 | 1.06 | 1.13 | 0.717
3 | SK-LU-1 | 0.426 | 0.548 | 0.394 | 0.299 | 0.164 | 0.174 | 0.186 | 0.0685 | 0.0703 | 0.942 | 0.958 | 1.18 | 0.892 | 0.875 | 0.93 | 1.09 | 0.303 | 0.491
4 | NCI-H1651 | 0.159 | 0.15 | 0.131 | 0.138 | 0.402 | 0.468 | 0.451 | 0.221 | 0.198 | 0.881 | 0.875 | 0.825 | 0.807 | 0.694 | 0.87 | 0.944 | 0.275 | 0.234
5 | NCI-H1793 | 0.829 | 0.952 | 0.81 | 0.835 | 0.407 | 0.466 | 0.423 | 0.184 | 0.164 | – | – | – | – | 0.823 | 0.692 | 0.641 | 0.207 | 0.144
6 | NCI-H2023 | 0.51 | 0.497 | 0.414 | 0.277 | 0.519 | 0.642 | 0.699 | 0.357 | 0.0963 | 0.612 | 0.595 | 0.631 | 0.59 | 0.968 | 0.976 | 1.05 | 0.189 | 0.0633
7 | LC-2-ad | 0.664 | 0.662 | 0.441 | 0.398 | 0.572 | 0.649 | 0.62 | 0.282 | 0.203 | 0.501 | 0.513 | 0.491 | 0.46 | 0.986 | 0.847 | 1.03 | 0.0913 | 0.112
8 | NCI-H1703 | 0.514 | 0.388 | 0.576 | 0.41 | – | – | – | – | – | 0.872 | 0.669 | 0.655 | 0.435 | 1.52 | – | 1.03 | 0.17 | 0.218
9 | NCI-H1437 | 0.619 | 0.624 | 0.633 | 0.548 | 0.439 | 0.408 | 0.369 | 0.286 | 0.131 | 0.795 | 0.956 | 1.02 | 0.855 | 0.689 | 1.01 | 1.07 | 0.328 | 0.265
